These results are taken from patent US12162836B2, “N-acyl-{4-[(4-aryl-phenyl)sulfonylmethyl]piperidine} compounds and their therapeutic use” (Modern Biosciences Limited, priority 2019, dated 2024).

For series [1], the system named is collagen-induced arthritis in DBA/1j mice. Description: Mouse Collagen-Induced Arthritis. Format: in vivo. The conditions noted are these: 10 mg/kg/day, once daily for 14 days, oral gavage; arthritic index vs control. The protocol: Seven- to eight-week-old male DBA/1j mice were used for all procedures. Animals were housed in groups of 10, and were maintained at 21° C.±2° C. on a 12-hour light/dark cycle with food and water ad libitum. Complete Freund's adjuvant (CFA) was prepared by emulsifying bovine type II collagen at 4 mg/mL with a 4 mg/mL suspension of Mycobacterium tuberculosis H37Ra in Incomplete Freund's Adjuvant (IFA) (0.85 mL paraffin oil and 0.15 mL mannide monooleate) in a 1:1 (v/v) ratio. All mice were immunised subcutaneously with 200 μg of bovine type II collagen in CFA. 21 days later, all mice were immunised subcutaneously with 100 μg of bovine type II collagen in IFA. The mice started to develop signs and symptoms of arthritis following the ‘booster’ immunisation.
For macroscopic assessment of arthritis, the following signs were monitored in each paw of each mouse three times per week and summed to generate the Arthritic Index (A1) (the maximum A1 for one animal is 16): • 0=no visible effects of arthritis. • 1=oedema and/or erythema of 1 digit. • 2=oedema and/or erythema of 2 digits. • 3=oedema and/or erythema of more than 2 digits. • 4=severe arthritis of entire paw and digits.
Animals were sorted into treatment groups with a mean arthritic index of 2.5 and then dosed once daily for 14 days with compound: by oral gavage for test compounds, or by subcutaneous injection at a dose of 10 mg/kg for the positive control, etanercept. After completion of the experiment, the mice were sacrificed.
The data were analysed by generating an average of the arthritic index across each treatment group. The mean arthritic index was then compared to the arthritic index of control (untreated) animals using the following formula to generate a percentage inhibition of disease.

The subject of series [2] is CYP1A2, CYP2C9, CYP2C19, CYP2D6 and CYP3A4. Format: in vitro ADME, human. Here is the method: The ability of test compounds to inhibit five of the most relevant cytochrome P450 enzymes was measured by determination of the activity of cytochrome P450 enzymes in recombinant cytochrome preparations, called Bactosomes (Cypex Ltd, Dundee, Scotland UK DD2 1 NH), in the presence of a specific probe substrate. Bactosomes are a highly efficient and cost-effective source of recombinant CYP450s which have a higher specific activity of enzyme compared to other sources, such as liver microsomes. […] The following CYP450 isoforms were assayed: CYP1A2, CYP2C9, CYP2C19, CYP2D6 and CYP3A4. The study of CYP450 inhibition potential in Bactosomes is accepted as a valuable model permitting rapid prediction of potential drug-drug interactions in vivo (see, e.g., Weaver et al., 2003).
Bactosomes were obtained from a commercial source (Cypex, Scotland, UK). Test compounds were incubated with Bactosomes at 6 concentrations. Samples were incubated for 10 minutes, after which the reaction was stopped and the samples analysed by LC-MS/MS Multiple Reaction Monitoring (MRM) for the presence/amount of substrate probe. […]

The target in the next series is hERG ion channel (Homo sapiens (Human), UniProt Q12809). Description: hERG Ion Channel binding assay (3H astemizole displacement). In short, it runs like this:
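Membranes from stably transfected hERG-HEK293 cells incubated with 1.5 nM ³H-astemizole ± test compound in HEPES buffer pH 7.4 (0.1% BSA, 5 mM KCl, 130 mM NaCl) at 25° C for 60 min. Bound ligand measured by filtration and scintillation counting; reported as % displacement (0% none, 100% complete).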

The subject of series [3] is human, rat (Sprague Dawley) and dog (Beagle) hepatocytes. Description: Metabolite identification (biaryl metabolite detection) in cryopreserved hepatocytes. It counts as in vitro ADME. The conditions noted are these: primary hepatocyte incubations, 10 μM, final time point (60 minutes). The protocol:
The formation of metabolites in humans, rats and dogs was assessed to determine the propensity of the compounds to form a biaryl metabolite.
In vitro studies on the metabolism of drugs are usually performed using liver preparations such as isolated perfused livers, liver slices, liver homogenates, isolated cryopreserved hepatocytes, subcellular liver fractions (S9, cytosol, and microsomes), or recombinant metabolizing enzymes overexpressed on non-expressing cell systems, particularly CYP enzymes. Cryopreserved hepatocytes contain all the enzymes and co-factors needed for phase I and phase II drug metabolism, making them an excellent in vitro model for assessment of drug metabolic stability and metabolite profiling.
Cryopreserved human, rat (Sprague Dawley) and dog (Beagle) hepatocytes were revived from liquid nitrogen and plated at a seeding density of 2×10^6 cells/mL (>95% viability). Following a 15 minute incubation at 37° C. a sample was removed for a zero (0) minute time point assessment. […]
All samples were processed for analysis by protein precipitation using 500 μL ice-cold acetonitrile and analysed with a fit-for-purpose LC-MS/MS method.
At the completion of the study, the results were expressed as detection of the biaryl metabolite at the final time point.

hERG ion channel, sequence (Q12809 whole entry): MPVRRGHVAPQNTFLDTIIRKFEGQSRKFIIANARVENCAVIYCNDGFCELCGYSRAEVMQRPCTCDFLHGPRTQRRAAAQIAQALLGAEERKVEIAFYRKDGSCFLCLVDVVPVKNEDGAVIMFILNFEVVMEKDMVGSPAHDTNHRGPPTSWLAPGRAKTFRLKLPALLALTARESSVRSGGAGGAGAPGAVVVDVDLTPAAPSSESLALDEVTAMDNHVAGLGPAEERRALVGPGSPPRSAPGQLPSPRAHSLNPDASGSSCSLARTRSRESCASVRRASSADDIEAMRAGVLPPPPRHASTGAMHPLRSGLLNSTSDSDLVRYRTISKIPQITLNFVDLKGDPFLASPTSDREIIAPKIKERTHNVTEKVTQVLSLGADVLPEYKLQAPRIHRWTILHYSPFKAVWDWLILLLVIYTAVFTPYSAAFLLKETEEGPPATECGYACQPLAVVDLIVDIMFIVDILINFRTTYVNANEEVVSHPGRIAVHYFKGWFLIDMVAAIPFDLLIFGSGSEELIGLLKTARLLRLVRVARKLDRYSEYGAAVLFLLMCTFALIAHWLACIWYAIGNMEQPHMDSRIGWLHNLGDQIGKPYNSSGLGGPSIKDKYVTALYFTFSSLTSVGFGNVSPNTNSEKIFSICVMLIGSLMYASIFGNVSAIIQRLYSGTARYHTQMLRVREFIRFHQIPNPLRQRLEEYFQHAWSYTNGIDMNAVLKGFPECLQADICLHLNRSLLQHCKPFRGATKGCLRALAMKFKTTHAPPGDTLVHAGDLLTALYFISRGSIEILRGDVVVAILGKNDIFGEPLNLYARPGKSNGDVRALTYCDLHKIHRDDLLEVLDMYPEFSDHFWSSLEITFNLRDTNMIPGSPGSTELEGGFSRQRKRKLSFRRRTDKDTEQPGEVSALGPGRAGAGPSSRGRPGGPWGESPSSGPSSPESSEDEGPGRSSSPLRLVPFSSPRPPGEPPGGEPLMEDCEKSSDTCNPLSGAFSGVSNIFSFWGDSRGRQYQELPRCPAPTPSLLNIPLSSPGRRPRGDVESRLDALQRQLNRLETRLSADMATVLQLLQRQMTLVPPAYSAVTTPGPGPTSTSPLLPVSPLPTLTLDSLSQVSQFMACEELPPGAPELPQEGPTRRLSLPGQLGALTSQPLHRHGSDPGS

Regarding `CC1(O)CCC(NS(=O)(=O)c2ccc(-c3ccc(F)cc3F)cc2)CC1` (stereo not shown) [ABD899, reference compound], the “% inhibition of disease” value in series [1] came to 77%.

On to `CC(=O)N1CCC(CS(=O)(=O)c2ccc(-c3ccc(F)cc3F)cc2)CC1` [NASMP-01, 1-(4-(((2′,4′-Difluoro-[1,1′-biphenyl]-4-yl)sulfonyl)methyl)piperidin-1-yl)ethan-1-one], for which, in series [2], the “drug-drug interaction liability, CYP450 inhibition profile (in words)” value is reported as “particularly good profile”. For the same molecule, the “cardiac safety profile, hERG (in words)” value at hERG ion channel is “particularly positive profile”. Besides, in series [1], the “% inhibition of disease” value is on record as 64%. For the same molecule, the “Biaryl metabolite detected?” value in series [3] is given as “No”.

On to `CC(=O)N1CCC(CS(=O)(=O)c2ccc(-c3ccc(C#N)cc3Cl)cc2)CC1` [NASMP-05, 4′-(((1-Acetylpiperidin-4-yl)methyl)sulfonyl)-2-chloro-[1,1′-biphenyl]-4-carbonitrile], for which, in series [2], the “drug-drug interaction liability, CYP450 inhibition profile (in words)” value was “particularly good profile”.

Take `CC(=O)N1CCC(CS(=O)(=O)c2ccc(-c3c(F)cccc3F)cc2)CC1` [NASMP-09, 1-(4-(((2′,6′-Difluoro-[1,1′-biphenyl]-4-yl)sulfonyl)methyl)piperidin-1-yl)ethan-1-one]: the “cardiac safety profile, hERG (in words)” value at hERG ion channel is “particularly positive profile”.
